Format in all cases: cell-based
Assay [1] deals with human epidermal-derived keratinocytes. Kind of assay: in vitro wound healing assay, keratinocyte post-injury motility. The note with it: compared with HbEGF, growth factor known to be migration-inducing in keratinocytes (FIG. 2). Here is the method:
Referring to FIG. 2, an in vitro wound healing assay was performed to compare the wound healing properties of two WHPs, SEQ ID NO: 3 and SEQ ID NO: 9, with a known potentiator of keratinocyte migration, heparin-binding EGF-like growth factor (HbEGF). In these experiments, confluent densities of human epidermal-derived keratinocytes were plated in vitro in defined media lacking WHPs or positive control substances. At time zero, all cultures are wounded mechanically and imaging of wounds was accomplished automatically using computer-assisted light microscope imaging. Cell cultures were injured mechanically by removing defined zones of living cells were then washed and test agents or control substances delivered. Cells recovering from injury were than quantifiably monitored using computer-assisted imaging and light microscopy. Post-injury motility was assessed using the migratory response of untreated injured cultures as a baseline for quantitative comparative analysis. Multiple experiments with multiple replicates are shown, standard deviation with error of the mean.

The test system of the next assay is endothelial cells. Description: endothelial cell proliferation assay. As to conditions: peptide at 1 nM; control cultures in 5% BCS DMEM (FIG. 5). The method, then: The WHPs provided herein induce endothelial cell proliferation. […] Endothelial cells were plated at subconfluent concentrations and allowed to attach, then new culture media was provided in the presence or absence of a WHP; control cultures were grown in 5% BCS DMEM.

Assay [2] has as its system capillary endothelial cells. Kind of assay: in vitro wound healing assay, capillary endothelial cell migration. As to conditions: one and two hours post-injury; WHP 0.5 nM to 0.2 mM in DMEM with 1% bovine calf serum; vs control cultures (FIG. 1). The method, then:
In this assay, capillary endothelial cells were plated on tissue culture plastic and allowed to form a confluent monolayer. The monolayer was mechanically disrupted and non-adherent cells were removed, at which point the WHP was provided at a concentration within the range of sub-nanomolar (0.5 nM) to sub-millimolar (0.2 mM) in tissue culture media (DMEM with 1% bovine calf serum. Control cultures were incubated with serum alone, positive control test substances, e.g. basic fibroblast growth factor (bFGF viz, FGF2) and vascular endothelial growth factor (VEGF) (for capillary-derived endothelial cells); or heparin-binding epidermal-like growth factor (Hb-EGF) (for human skin derived keratinocytes). Other control cultures were incubated with either no peptide or a random peptide without wound healing or proliferative properties. The extent of endothelial cell migration in the WHP and control cultures was observationally determined at various time points following injury (e.g., thirty minutes, one hour, two hours, or more than two hours).

Assay [3] in a line: in vitro injury model, dose dependence. As to conditions: concentrations ranging from 1 to 1000 nM (FIG. 3). The method, then: Referring to FIG. 3, the WHPs provided herein act in dose-dependent manner. A WHP, SEQ ID NO: 9, was provided in an in vitro injury model at concentrations ranging from 1 to 1000 nM.
Assay [4] deals with capillary endothelial cells. Description: in vitro capillary morphogenesis (angiogenesis) assay. As to conditions: cells embedded in ECM-derived three-dimensional matrix, incubated twenty hours (FIG. 4). Here is the method: The WHPs provided herein are also useful in the promotion of capillary morphogenesis. […] Specifically, isolated capillary endothelial cells were embedded in an ECM-derived three-dimensional matrix that contained a WHP at a range of concentrations from the nanomolar (nM) to sub-millimolar (mM) (e.g., between 0.5 nM-0.2 mM) and incubated. […] In comparison, negative control cell populations (i.e., cells that were not exposed to a WHP but were exposed to serum containing media, which contains growth factors and other angiogenesis inducers) generally remained as individual cells during this timeframe at this population density.

“DINECEIGAPAGEETEVTVEGLEPG [SEQ ID NO: 3]”: in assay [1], the keratinocyte post-injury motility entry was “equal or superior to the growth factor”. Moreover, the endothelial cell proliferation result with endothelial cells is on record as “increase in endothelial cell proliferation”.
As for DINECELSANL [SEQ ID NO: 9], the “endothelial cell migration into the wound site” value in assay [2] is recorded as “substantially greater migration into the wound site”. Besides, in assay [1], the keratinocyte post-injury motility entry is “equal or superior to the growth factor”. Moreover, in assay [3], the “wound healing activity, dose dependence” value is “dose-dependent”. Also, the endothelial cell proliferation result in the assay on endothelial cells is listed as “increase in endothelial cell proliferation”.
As for “bFGF: basic fibroblast growth factor, positive control growth factor”, the “formation of capillary tube like structures / in vitro angiogenesis” value in assay [4] is on record as “able to promote in vitro angiogenesis to a lesser extent than populations treated with a WHP”.

(Values after patent publication US8357655B2, “Wound healing peptides and methods of use thereof” (Tufts University, priority 2008, dated 2013).)
